Data on four molecules can be found in ChEMBL document CHEMBL1201862, “PubChem BioAssay data set” (2004).

Assay [1] addresses T1, Carboxy-terminal domain RNA polymerase II polypeptide A small phosphatase 1 (Homo sapiens, UniProt Q9GZU7).
T1 sequence (Q9GZU7 whole entry): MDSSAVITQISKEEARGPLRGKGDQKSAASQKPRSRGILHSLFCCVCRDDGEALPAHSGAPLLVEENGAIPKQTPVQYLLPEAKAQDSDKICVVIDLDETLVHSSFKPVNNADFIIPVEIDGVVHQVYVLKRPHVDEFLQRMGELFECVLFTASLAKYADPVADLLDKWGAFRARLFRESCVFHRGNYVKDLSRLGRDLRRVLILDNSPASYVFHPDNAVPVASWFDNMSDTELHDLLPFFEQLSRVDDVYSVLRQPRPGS
As to the kind of experiment: CTDSP1 inhibitors, concentration-response, biochemical, absorbance readout, ultra-high-throughput screen actives (AID 540297). It counts as functional.

Assay [2] concerns the target DNA dC->dU-editing enzyme APOBEC-3A (Homo sapiens, UniProt P31941). As to the kind of experiment: A3A deaminase inhibition for selectivity – biochemical, dose response (AID 504722). It counts as functional.
For assay [3], the target named is T2, Small ubiquitin-related modifier 1 (Homo sapiens, UniProt P63165). As to the kind of experiment: SUMO1 protein-protein binding blockers, potency – biochemical, FRET, dose response (AID 624383). Type of assay: functional. As to conditions: read-out: IC50_Mean.
T2 sequence (P63165 whole entry): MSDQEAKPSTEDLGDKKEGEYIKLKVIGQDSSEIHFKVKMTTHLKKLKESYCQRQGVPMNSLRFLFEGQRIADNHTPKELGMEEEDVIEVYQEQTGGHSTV
The target of assay [4] is T3, Apoptotic protease-activating factor 1 (Homo sapiens, UniProt O14727).
T3 sequence (O14727 whole entry): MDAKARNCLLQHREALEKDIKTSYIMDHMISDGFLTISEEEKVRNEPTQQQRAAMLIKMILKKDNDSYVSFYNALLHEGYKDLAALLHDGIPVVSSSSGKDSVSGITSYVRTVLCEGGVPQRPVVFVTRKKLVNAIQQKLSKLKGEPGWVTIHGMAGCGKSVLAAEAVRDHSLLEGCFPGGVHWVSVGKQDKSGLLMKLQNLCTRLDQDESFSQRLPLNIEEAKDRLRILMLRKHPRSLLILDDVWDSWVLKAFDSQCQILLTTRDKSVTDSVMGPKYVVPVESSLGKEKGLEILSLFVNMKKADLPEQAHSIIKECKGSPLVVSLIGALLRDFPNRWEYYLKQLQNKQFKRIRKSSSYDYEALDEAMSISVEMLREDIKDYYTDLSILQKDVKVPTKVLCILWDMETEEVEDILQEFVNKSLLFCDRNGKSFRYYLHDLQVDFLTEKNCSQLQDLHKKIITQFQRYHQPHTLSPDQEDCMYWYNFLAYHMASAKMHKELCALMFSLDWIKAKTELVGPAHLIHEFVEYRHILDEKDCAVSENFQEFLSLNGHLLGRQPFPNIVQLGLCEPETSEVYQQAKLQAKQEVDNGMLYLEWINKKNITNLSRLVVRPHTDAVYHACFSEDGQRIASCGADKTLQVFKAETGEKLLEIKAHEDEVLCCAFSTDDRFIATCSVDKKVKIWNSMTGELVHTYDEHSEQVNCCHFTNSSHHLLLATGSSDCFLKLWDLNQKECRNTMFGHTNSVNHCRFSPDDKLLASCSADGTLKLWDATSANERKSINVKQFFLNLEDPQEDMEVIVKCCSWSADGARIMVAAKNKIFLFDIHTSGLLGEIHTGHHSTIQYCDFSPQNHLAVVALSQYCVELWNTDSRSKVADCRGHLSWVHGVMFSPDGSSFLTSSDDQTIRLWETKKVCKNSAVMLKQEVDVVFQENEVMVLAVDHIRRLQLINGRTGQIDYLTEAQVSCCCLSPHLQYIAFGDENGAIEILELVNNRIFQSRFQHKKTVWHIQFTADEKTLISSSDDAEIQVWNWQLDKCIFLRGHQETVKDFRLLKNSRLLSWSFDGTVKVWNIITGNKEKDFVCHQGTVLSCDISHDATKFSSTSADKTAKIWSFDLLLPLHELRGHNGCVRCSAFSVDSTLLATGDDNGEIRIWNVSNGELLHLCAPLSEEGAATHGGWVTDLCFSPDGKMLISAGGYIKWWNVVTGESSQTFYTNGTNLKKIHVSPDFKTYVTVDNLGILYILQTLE
As to the kind of experiment: activation of Apaf-1 mediated apoptosis – fluorescent, uHTS hits, dose response (AID 588554). Type of assay: functional.

Assay [5] addresses DNA (cytosine-5)-methyltransferase 1 (Homo sapiens, UniProt P26358). As to the kind of experiment: inhibition of DNA methylation by DNMT1 – biochemical, fluorescent molecular beacon, confirmation (AID 602386). Type of assay: functional.
In assay [6] the target is T2, Small ubiquitin-related modifier 1. As to the kind of experiment: SUMO1 protein interaction blockers, potency – biochemical, fluorescence polarization, uHTS hits, dose response (AID 624382). It counts as functional. Particulars: read-out: IC50_Mean.
In assay [7] the target is DNA dC->dU-editing enzyme APOBEC-3G (Homo sapiens, UniProt Q9HC16). As to the kind of experiment: Dose Response confirmation of small molecule APOBEC3G DNA Deaminase Inhibitors via a fluorescence-based single-stranded DNA deaminase assay. [Related pubchem assays (depositor defined):AID493012, AID493028]. It counts as functional.
Sequence of DNA dC->dU-editing enzyme APOBEC-3G (Q9HC16 whole entry): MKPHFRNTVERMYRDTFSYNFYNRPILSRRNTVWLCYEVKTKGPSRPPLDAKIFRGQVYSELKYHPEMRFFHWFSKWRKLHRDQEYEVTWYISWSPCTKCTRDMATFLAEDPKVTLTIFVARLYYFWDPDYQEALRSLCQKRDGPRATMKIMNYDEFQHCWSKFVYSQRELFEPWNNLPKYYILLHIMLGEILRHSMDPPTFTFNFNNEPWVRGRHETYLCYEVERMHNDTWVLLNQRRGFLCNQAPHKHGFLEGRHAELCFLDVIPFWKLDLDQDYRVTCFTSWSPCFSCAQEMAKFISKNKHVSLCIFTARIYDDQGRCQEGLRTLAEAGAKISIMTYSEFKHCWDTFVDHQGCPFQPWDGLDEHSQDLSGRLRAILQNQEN
The next assay concerns the target CAAX prenyl protease 1 (Saccharomyces cerevisiae S288c, UniProt P47154). As to the kind of experiment: yeast CAAX protease Ste24 inhibition – biochemical, S. cerevisiae, plate reader, cherry-pick, dose response (AID 488815).
The test system of another assay is Streptococcus. As to the kind of experiment: GAS UMAA2166 growth inhibition – luminescence, BacTiterGlo, counter-screen for streptokinase expression inhibitor project, dose response (AID 1915).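 Also: potency for reduction of bacterial viability or growth.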 It counts as functional, organism-based. For orientation: Counterscreens check selectivity or assay interference.
Assay [8] has as its target CAAX prenyl protease 2 (Saccharomyces cerevisiae S288c, UniProt Q03530). Type of assay: biochemical.
The target of assay [9] is CAAX prenyl protease 2 (Homo sapiens, UniProt Q9Y256). As to the kind of experiment: inhibition of Ras-converting CAAX protease Rce1 – biochemical, yeast membranes, quenched-peptide fluorescence, cherry-pick, dose response (AID 588849).
Sequence of CAAX prenyl protease 2 (Homo sapiens, UniProt Q9Y256) (Q9Y256 whole entry): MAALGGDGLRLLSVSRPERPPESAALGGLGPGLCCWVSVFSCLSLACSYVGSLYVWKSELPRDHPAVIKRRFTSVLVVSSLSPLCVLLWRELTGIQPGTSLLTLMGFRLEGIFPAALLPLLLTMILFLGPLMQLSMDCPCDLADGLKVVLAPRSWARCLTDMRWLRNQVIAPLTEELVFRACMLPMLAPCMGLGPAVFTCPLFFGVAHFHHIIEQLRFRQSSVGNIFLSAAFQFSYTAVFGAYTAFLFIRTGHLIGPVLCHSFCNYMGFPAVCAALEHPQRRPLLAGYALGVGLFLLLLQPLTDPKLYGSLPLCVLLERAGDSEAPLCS
Assay [10] has as its system Streptococcus sp. 'group A'. As to the kind of experiment: Streptococcus pyogenes SK(-)GAS viability under kanamycin – luminescence, BacTiterGlo, confirmation, counter-screen for streptokinase expression inhibitor project, dose response (AID 1900). Type of assay: functional, organism-based.
For the next assay, the target named is T4, Streptokinase A (Streptococcus pyogenes serotype M1, UniProt P10520).
T4 sequence (P10520 whole entry): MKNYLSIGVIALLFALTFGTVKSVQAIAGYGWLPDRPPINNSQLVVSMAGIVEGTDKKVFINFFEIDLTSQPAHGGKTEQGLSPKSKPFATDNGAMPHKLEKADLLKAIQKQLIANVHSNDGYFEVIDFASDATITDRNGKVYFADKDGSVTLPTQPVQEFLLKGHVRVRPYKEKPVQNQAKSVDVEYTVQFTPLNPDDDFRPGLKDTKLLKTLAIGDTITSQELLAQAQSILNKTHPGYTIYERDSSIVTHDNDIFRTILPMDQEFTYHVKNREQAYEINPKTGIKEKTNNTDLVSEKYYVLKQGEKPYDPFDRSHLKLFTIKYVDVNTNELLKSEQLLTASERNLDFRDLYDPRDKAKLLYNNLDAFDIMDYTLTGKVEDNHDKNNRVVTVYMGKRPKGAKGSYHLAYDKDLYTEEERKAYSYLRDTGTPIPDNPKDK
As to the kind of experiment: viability-normalized secreted streptokinase activity reduction – plasminogen activation absorbance, OD405, dose response (AID 1914).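 Also: secreted streptokinase activity via plasminogen activation per viability signal from cell pellet.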 Type of assay: functional, Streptococcus pyogenes M1 GAS.

Assay [11] can be described thus: fluconazole-exposed Candida albicans growth modulators – fluorescence, retest, confirmation (AID 2467). It counts as functional, cell-based.
Assay [12] in a line: NIH-3T3 fibroblast cytotoxicity, dose response, cytotoxicity control, cell-based, fluorescence, Alamar Blue, secondary assay (AID 2327).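 Also: NIH-3T3 mouse fibroblasts cultured with fluconazole at 8 µg/mL.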 Type of assay: functional. (In general: The colour change of resazurin is a common sign of viable cells or microbes.)
Assay [13] concerns the target T5, Intestinal-type alkaline phosphatase (Homo sapiens, UniProt P09923). As to the kind of experiment: human intestinal alkaline phosphatase activators, dose response, biochemical, luminescence, uHTS hits (AID 463120). Type of assay: functional.
Assay [14] concerns the target T6, Intestinal-type alkaline phosphatase (Mus musculus, UniProt P24822). As to the kind of experiment: PubChem AID 488874. Type of assay: functional.
The target in assay [15] is T7, Alkaline phosphatase, tissue-nonspecific isozyme (Homo sapiens, UniProt P05186).
T7 sequence (P05186 whole entry): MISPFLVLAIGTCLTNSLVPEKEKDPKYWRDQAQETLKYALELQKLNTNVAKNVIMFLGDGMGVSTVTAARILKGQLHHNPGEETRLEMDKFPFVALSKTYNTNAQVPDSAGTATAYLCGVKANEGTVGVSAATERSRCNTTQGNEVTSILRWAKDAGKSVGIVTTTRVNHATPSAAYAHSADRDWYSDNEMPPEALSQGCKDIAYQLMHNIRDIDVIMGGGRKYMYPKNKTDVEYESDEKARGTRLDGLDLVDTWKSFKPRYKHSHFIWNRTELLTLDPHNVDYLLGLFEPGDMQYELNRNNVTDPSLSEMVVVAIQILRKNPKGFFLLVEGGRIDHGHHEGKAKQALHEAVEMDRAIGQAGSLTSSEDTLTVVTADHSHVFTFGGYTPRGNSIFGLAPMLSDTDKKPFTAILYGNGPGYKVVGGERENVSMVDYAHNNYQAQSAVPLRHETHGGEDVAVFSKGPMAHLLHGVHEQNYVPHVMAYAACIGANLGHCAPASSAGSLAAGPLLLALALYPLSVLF
As to the kind of experiment: activation of tissue-nonspecific alkaline phosphatase – biochemical, TNAP isozyme, human IAP uHTS hits, selectivity assay for human IAP activator project, dose response (AID 488886).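 Also: potency of compounds raising TNAP activity as a selectivity check on IAP activators.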 Type of assay: functional.

The target of assay [16] is T5, Intestinal-type alkaline phosphatase. As to the kind of experiment: activation of human intestinal alkaline phosphatase – biochemical, luminescent, uHTS hits, set 2, dose response (AID 488817).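 Also: potency of activators that raise enzyme activity.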 Type of assay: functional.
The target is the same in assay [17]. As to the kind of experiment: inhibition of human intestinal alkaline phosphatase – biochemical, luminescent, uHTS hits, set 2, dose response (AID 488793). It counts as functional.
For assay [18], the target named is T6, Intestinal-type alkaline phosphatase. As to the kind of experiment: PubChem AID 488875. Type of assay: functional.
Assay [19] addresses T5, Intestinal-type alkaline phosphatase. As to the kind of experiment: Dose Response confirmation of uHTS hits from a small molecule inhibitors of human intestinal alkaline phosphatase via a luminescent assay. [Related pubchem assays (depositor defined):AID2544, AID2574]. It counts as functional.
Assay [20] addresses T7, Alkaline phosphatase, tissue-nonspecific isozyme. As to the kind of experiment: inhibition of tissue-nonspecific alkaline phosphatase – biochemical, dose response (AID 488882). Type of assay: functional.

Calls of active or inactive are those of the source. Some results are limits rather than exact numbers.

T5 sequence (P09923 whole entry): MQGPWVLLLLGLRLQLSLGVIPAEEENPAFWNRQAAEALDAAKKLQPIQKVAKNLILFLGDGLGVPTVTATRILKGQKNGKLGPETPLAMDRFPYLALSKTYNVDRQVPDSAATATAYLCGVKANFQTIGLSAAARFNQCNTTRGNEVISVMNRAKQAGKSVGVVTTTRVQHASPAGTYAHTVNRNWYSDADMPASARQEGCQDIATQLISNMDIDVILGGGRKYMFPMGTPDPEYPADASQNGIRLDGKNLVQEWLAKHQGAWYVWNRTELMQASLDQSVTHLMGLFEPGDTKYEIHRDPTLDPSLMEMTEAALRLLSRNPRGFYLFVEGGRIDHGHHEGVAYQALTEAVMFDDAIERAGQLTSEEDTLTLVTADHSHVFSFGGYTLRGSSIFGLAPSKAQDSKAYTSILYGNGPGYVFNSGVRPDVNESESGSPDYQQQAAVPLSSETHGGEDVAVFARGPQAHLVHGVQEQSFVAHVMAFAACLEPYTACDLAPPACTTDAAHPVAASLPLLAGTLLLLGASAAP
T6 sequence (P24822 whole entry): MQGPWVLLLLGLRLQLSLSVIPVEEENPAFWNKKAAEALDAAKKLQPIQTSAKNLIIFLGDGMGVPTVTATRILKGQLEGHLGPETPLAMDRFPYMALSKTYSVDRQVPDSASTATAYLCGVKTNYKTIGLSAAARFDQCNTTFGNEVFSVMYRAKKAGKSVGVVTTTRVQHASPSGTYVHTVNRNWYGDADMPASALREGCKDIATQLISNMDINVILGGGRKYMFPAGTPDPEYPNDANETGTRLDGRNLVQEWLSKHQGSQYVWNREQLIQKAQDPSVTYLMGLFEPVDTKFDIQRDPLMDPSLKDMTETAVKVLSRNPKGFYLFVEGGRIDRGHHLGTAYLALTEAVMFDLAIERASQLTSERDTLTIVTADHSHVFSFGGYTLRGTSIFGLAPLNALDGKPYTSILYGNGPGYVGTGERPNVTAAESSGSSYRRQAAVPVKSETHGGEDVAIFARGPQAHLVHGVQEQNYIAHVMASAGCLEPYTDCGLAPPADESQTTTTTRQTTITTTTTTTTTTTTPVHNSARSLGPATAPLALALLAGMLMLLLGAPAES
Sequence of CAAX prenyl protease 1 (P47154 whole entry): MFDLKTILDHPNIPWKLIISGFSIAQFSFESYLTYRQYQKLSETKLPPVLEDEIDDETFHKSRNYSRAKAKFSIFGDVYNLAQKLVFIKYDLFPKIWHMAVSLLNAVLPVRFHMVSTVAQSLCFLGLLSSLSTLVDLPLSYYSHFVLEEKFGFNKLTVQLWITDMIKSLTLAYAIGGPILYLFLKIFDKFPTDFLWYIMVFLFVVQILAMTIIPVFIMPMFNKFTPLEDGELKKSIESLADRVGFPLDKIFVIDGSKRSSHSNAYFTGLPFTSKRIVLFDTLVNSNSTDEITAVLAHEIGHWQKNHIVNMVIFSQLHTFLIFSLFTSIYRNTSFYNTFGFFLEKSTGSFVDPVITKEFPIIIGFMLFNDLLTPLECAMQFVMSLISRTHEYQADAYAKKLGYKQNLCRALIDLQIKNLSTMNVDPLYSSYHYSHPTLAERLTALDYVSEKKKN
Sequence of DNA dC->dU-editing enzyme APOBEC-3A (P31941 whole entry): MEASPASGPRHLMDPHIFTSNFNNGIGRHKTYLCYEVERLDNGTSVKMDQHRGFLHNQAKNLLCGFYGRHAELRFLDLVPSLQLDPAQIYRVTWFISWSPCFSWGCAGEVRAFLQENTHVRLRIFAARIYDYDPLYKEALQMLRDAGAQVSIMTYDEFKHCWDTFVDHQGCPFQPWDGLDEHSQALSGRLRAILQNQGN
Sequence of DNA (cytosine-5)-methyltransferase 1 (P26358 whole entry): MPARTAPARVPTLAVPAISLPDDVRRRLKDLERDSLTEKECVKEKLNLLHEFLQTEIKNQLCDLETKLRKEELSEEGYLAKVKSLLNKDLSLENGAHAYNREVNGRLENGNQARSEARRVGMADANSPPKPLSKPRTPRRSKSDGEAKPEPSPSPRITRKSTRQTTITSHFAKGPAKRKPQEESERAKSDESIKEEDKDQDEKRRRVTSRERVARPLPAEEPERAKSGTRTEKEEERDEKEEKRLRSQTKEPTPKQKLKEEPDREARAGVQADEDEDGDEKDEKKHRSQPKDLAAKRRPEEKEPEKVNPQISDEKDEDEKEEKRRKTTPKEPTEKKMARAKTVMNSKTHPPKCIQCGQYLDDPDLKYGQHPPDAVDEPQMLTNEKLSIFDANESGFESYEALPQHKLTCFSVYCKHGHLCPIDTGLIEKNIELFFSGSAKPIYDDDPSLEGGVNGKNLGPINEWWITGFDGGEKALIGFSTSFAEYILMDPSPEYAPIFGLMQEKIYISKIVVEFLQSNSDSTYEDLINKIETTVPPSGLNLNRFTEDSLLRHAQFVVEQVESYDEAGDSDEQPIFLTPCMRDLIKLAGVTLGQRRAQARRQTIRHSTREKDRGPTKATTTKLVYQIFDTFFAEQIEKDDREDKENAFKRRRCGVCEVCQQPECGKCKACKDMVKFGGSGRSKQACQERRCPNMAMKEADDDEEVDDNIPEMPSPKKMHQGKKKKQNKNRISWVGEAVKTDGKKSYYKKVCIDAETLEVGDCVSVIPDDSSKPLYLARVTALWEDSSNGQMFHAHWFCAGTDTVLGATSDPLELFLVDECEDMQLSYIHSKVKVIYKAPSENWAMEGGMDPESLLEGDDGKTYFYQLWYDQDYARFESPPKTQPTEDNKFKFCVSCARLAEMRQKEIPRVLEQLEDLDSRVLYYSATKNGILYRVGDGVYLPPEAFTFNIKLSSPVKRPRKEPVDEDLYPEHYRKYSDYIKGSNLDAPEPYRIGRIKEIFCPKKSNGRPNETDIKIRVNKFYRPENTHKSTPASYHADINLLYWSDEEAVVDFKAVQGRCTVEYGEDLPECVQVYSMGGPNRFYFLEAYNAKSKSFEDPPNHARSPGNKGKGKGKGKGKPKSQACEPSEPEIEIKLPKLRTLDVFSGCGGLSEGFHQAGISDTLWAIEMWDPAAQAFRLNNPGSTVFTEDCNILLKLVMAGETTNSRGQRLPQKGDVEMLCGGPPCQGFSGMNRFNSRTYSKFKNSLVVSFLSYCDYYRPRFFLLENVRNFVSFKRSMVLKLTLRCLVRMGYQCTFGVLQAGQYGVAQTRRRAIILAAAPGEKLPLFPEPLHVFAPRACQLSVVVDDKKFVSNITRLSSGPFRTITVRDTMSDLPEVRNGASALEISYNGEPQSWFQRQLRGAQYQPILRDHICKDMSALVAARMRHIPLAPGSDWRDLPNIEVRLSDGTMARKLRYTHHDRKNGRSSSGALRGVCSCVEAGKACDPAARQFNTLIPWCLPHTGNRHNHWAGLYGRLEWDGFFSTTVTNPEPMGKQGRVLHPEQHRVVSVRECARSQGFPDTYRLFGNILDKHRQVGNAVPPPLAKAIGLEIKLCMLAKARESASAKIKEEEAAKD
Sequence of CAAX prenyl protease 2 (Saccharomyces cerevisiae S288c, UniProt Q03530) (Q03530 whole entry): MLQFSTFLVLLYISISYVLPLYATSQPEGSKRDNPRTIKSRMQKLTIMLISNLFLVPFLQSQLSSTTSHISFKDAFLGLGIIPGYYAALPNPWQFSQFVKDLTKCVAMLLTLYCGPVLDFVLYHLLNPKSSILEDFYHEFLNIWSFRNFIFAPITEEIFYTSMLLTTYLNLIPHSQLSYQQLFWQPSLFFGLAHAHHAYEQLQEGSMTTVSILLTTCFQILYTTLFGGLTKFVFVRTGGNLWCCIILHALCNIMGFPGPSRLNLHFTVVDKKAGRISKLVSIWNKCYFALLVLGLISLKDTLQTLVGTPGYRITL

As to `C=C(C)C(=O)Nc1cccc(C2=NOC3(C2)C[C@@H](C(N)=O)N(C(=O)/C=C/CC)C3)c1` (stereo partly drawn), the IC50 was 1.73 µM (active) in [1]; > 100 µM (inactive) in [2]; 3.25 µM (active) in [3]; 5.96 µM (active) in assay [5]; > 66.6 µM (inactive) in assay [6]; 6.06 µM (active) in assay [7]. In addition, the EC50 in assay [4] is 4.43 µM (active).

As to `CCCCCc1ccc(OCCOCC[n+]2cn(C)c3ccccc32)c(CCCCC)c1`, the values for the AC50 on CAAX prenyl protease 1, on CAAX prenyl protease 2 [8] and on CAAX prenyl protease 2 [9] were 13.1 µM (active), 9.1 µM (active) and 17.9 µM (active), respectively. In addition, the EC50 with Streptococcus is 16.1 µM (inconclusive); in assay [10], 6.43 µM (active); at Streptokinase A it was 13.5 µM (active); in assay [11], 1.31 µM (active); in assay [12] it was > 150 µM (inactive).

Turning to `Cc1cccc(-n2ncc3c(NNC(=O)c4ccco4)ncnc32)c1`, the EC50 is 7.19 µM (active) in [13], 7.58 µM (active) in assay [15] and 7.33 µM (active) in assay [16]. Also, in assay [14], the IC50 is 66.9 µM (active).

In the case of `O=C1C2C3C=CC(C3)C2C(=O)N1c1n[nH]c(-c2cccnc2)n1` (stereo not drawn), the results for the IC50 in assay [17], in assay [19] and in [20] were 7.69 µM (active), 5.18 µM (active) and > 100 µM (inactive), respectively. For the same molecule, the EC50 in assay [18] is > 100 µM (inactive).

For orientation: EC50 means the concentration giving half of the maximal effect. What is called AC50 is the concentration giving half of the maximal activity seen.
